In PMC6268135, “Synthesis and 5α-Reductase Inhibitory Activity of C21 Steroids Having 1,4-diene or 4,6-diene 20-ones and 4-Azasteroid 20-Oximes” (Molecules, 2011):
Read-outs that look alike come from different tables or passages of the source.

How the values were obtained:
[1] = molecular target: testosterone 5α-reductase prepared from rat prostates; experiment: Testosterone 5α-reductase assay ([1,2,6,7-3H]testosterone as substrate);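 further: conversion of tritiated testosterone to 5α-dihydrotestosterone, separated by TLC and scintillation counted, relative to enzyme control without test sample after subtracting substrate blank without enzyme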
Protocol: Since the rat prostate extracts for measuring testosterone 5α-reductase inhibition were used in a neutral pH buffer, both isozymes were assayed in this study due to differences in its biochemical properties.
The enzyme suspension of testosterone 5α-reductase was prepared from the homogenate of the ventral prostate of male Sprague-Dawley rats using the methods previously reported [32]. Testosterone 5α-reductase inhibition was measured according to the methods previously reported [32]. A brief description follows: Sprague-Dawley male rats 7-8 weeks old were sacrificed by diethyl ether, and the ventral prostates were excised and minced with a pair of scissors. The prostates were homogenized with a glass-glass homogenizer in medium A (0.32 M sucrose, 0.1 mM dithiothreitol and 20 mM sodium phosphate, pH 6.5) to about 20% (w/v). The homogenate was filtered over 8 layers of surgical gauze, and centrifuged at 3,000 × g for 15 min. The resulting pellets were resuspended in medium A to about 25% (w/v) by triturating the suspension sequentially through an 18-gauge and then a 20-gauge needle. The assay mixture containing the test sample in ethanol (10 μL), reaction solution [525 μL, 1 mM dithiothreitol, 40 mM sodium phosphate (pH 6.5), 50 µM NADPH and 2.2 mM [1,2,6,7-^3H]testosterone, 3.15-3.89 TBq/mmol, PerkinElmer (Waltham, MA, USA)] and the enzyme suspension prepared above (40 μL), was incubated at 37°C for 1 h. After extraction with ethyl acetate (1 mL), a sample of the ethyl acetate phase (50 μL) was chromatographed on a silica plastic sheet (Kieselgel 60 F254, Merck KGaA (Darmstadt, Germany)) using the developing solvent system ethyl acetate-cyclohexane (1:1). Each of the testosterone and 5α-dihydrotestosterone areas was cut from the sheet. The ^3H radioactivity of each fragment was counted in 5 mL of Aquasol-2 (PerkinElmer) with a liquid scintillation counter [LS 6500, Beckman Coulter (Brea, CA, USA)]. Testosterone 5α-reductase inhibitory activity was calculated as follows:
where DHT and T are the ^3H radioactivity recovered in the areas of 5α-dihydrotestosterone and testosterone, respectively. rsample and rcontrol are reaction rates of the test sample and the enzyme control in which reaction rates are measured in the presence and absence of test sample, respectively, and rblank is reaction rate of the substrate blank in which reaction rate is measured in the absence of test sample and enzyme suspension. IC50 was calculated from the inhibitory activity values at several concentrations using linear regression analysis. Each enzyme reaction was carried out in duplicate.

[2] = read-out: IC50 (5α-reductase inhibitory activity), rat prostatic testosterone 5α-reductase
[3] = read-out: IC50 (testosterone 5α-reductase inhibitory activity), rat ventral prostate enzyme suspension, pH 6.5, 37°C, 1 h, both type 1 and type 2 isozymes
[4] = rat prostatic testosterone 5α-reductase

| Compound | melting point [°C] | IC50 [1, 2] [nM] | IC50 [1, 3] [nM] | 5α-reductase inhibitory activity in words [1, 4] |
| --- | --- | --- | --- | --- |
| CC(=NO)[C@H]1CC[C@H]2[C@@H]3C=CC4=CC(=O)[C@@H]5O[C@@H]5[C@]4(C)[C@H]3CC[C@]12C | 228 to 230 | – | – | – |
| CC(=NO)[C@H]1CC[C@H]2[C@@H]3[C@@H]4O[C@@H]4C4=CC(=O)C=C[C@]4(C)[C@H]3CC[C@]12C | 245 to 247 | – | – | – |
| CC(=O)[C@H]1CC[C@H]2[C@@H]3CCC4=CC(=O)CC[C@]4(C)[C@H]3CC[C@]12C [Compound 1, 4-pregnene-3,20-dione, reference compound] | – | 6.5 | 6.5 | – |
| CC(=O)[C@H]1CCC2C3CCC(=O)[C@](C)(CCC(=O)O)C3CC[C@@]21C (stereo partly shown) [Compound 2, 5,20-Dioxo-A-nor-3,5-secopregnane-3-oic acid] | 176 to 178 | – | > 10000 | only a weak inhibitory activity |
| CC(=O)[C@H]1CC[C@H]2[C@@H]3CC=C4NC(=O)CC[C@]4(C)[C@H]3CC[C@]12C [Compound 3, 4-Aza-5-pregnene-3,20-dione] | 158 to 160 | – | 2300 | moderate inhibition |
| CC(=NO)[C@H]1CC[C@H]2[C@@H]3CC=C4NC(=O)CC[C@]4(C)[C@H]3CC[C@]12C [Compound 4, 4-Aza-5-pregnene-3,20-dione-20-oxime] | 208 to 210 | 26 | 26 | potent inhibition |
| CC(=O)[C@H]1CC[C@H]2[C@@H]3CCC4NC(=O)CC[C@]4(C)[C@H]3CC[C@]12C (stereo partly shown) [Compound 5, 4-Aza-pregnane-3,20-dione] | – | – | 6100 | potent inhibition |
| CC(=NO)[C@H]1CC[C@H]2[C@@H]3CCC4NC(=O)CC[C@]4(C)[C@H]3CC[C@]12C (stereo partly shown) [Compound 6, 4-Aza-pregnane-3,20-dione-20-oxime] | 194 to 196 | 10 | 10 | potent inhibition |
| CC(=O)[C@H]1CC[C@H]2[C@@H]3CCC4NC(=O)C=C[C@]4(C)[C@H]3CC[C@]12C (stereo partly shown) [Compound 7, 4-Aza-1-pregnene-3,20-dione] | 174 to 176 | – | 14 | potent inhibition |
| CC(=NO)[C@H]1CC[C@H]2[C@@H]3CCC4NC(=O)C=C[C@]4(C)[C@H]3CC[C@]12C (stereo partly shown) [Compound 8, 4-Aza-1-pregnene-3,20-dione-20-oxime] | 235 to 237 | 11 | 11 | potent inhibition |
| CC(=O)[C@H]1CC[C@H]2[C@@H]3C=CC4=CC(=O)C=C[C@]4(C)[C@H]3CC[C@]12C [Compound 9, 1,4,6-Pregnatriene-3,20-dione] | 144 to 146 | – | 760 | moderate inhibition |
| CC(=O)[C@H]1CC[C@H]2[C@@H]3C=CC4=CC(=O)[C@@H]5O[C@@H]5[C@]4(C)[C@H]3CC[C@]12C [Compound 10, 1α,2α-Epoxypregna-4,6-diene-3,20-dione] | 183 to 185 | – | > 10000 | no inhibitory activity |
| CC(=O)[C@H]1CC[C@H]2[C@@H]3[C@@H]4O[C@@H]4C4=CC(=O)C=C[C@]4(C)[C@H]3CC[C@]12C [Compound 13, 6α,7α-Epoxypregna-1,4-diene-3,20-dione] | 206 to 208 | – | > 10000 | no inhibitory activity |
| CC(=O)O[C@H]1CC[C@@]2(C)C(=CCC3C2CC[C@@]2(C)C3CC[C@@H]2C(C)=O)C1 (stereo partly drawn) [Compound 15, 3β-Acetoxypregnenolone] | – | – | > 10000 | no inhibition |
| CC(=O)O[C@H]1CC[C@@]2(C)C(=CCC3C2CC[C@@]2(C)C3CC[C@@H]2C(C)=NO)C1 (stereo partly shown) [Compound 16] | – | – | > 10000 | no inhibition |
| CC(=O)C1CCC2C3CC4OC45CC(O)CCC5(C)C3CCC12C (stereo not shown) [Compound 17] | – | – | > 10000 | no inhibition |
| CC(=NO)C1CCC2C3CC4OC45CC(O)CCC5(C)C3CCC12C (stereo not shown) [Compound 18] | – | – | > 10000 | no inhibition |
| CC(=NO)[C@H]1CCC2C3CCC4=CC(=O)CC[C@]4(C)C3CC[C@@]21C (stereo partly shown) [Compound 20] | – | – | 14 | – |
| CC(=NO)[C@H]1CCC2C3CCC(=O)[C@](C)(CCC(=O)O)C3CC[C@@]21C (stereo partly shown) [Compound 21] | – | – | 2100 | – |
| CC(=NO)[C@H]1CCC2C3CCC4=CC(=O)C=C[C@]4(C)C3CC[C@@]21C (stereo partly shown) [Compound 22, 1,4-Pregnadiene-20-oxime] | – | – | 140 | – |
| CC(C)(C)NC(=O)[C@H]1CC[C@H]2[C@@H]3CC[C@H]4NC(=O)C=C[C@]4(C)[C@H]3CC[C@]12C [Finasteride, finasteride, reference compound] | – | 1.2 | 1.2 | – |
